# Key:
# [1] = test system: CD8+ and CD4+ T cells (autologous CD3+ Pan-T cells isolated from human normal PBMCs); experiment: Exogenous autologous normal donor restimulation assay (15-mer overlapping peptide pools on CD1c+ dendritic cells, TNFα/IFNγ flow cytometry); assay type: cell-based; details: Table 25, 15-mer overlapping peptide pool
# Summary of the method: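 Autologous CD3+ Pan-T cells from normal donors were co-cultured 12 days with irradiated CD1c+ DCs pulsed with 15-mer overlapping neoantigen peptide pools at 2.5–10 μg/mL, with IL-15 and IL-2 support. Cells were restimulated on day 11, then TNFα/IFNγ double-positive CD8+ and CD4+ frequencies read by flow. Positive means ≥3-fold over DMSO and ≥0.01%.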
# [2] = test system: CD8+ and CD4+ T cells (autologous CD3+ Pan-T cells isolated from human normal PBMCs); experiment: Endogenous autologous normal donor restimulation assay (Ad5-transduced CD1c+ dendritic cells, TNFα/IFNγ flow cytometry); assay type: cell-based; details: Table 27, endogenous expression, peptide pool restimulation, highest across sixteen normal donors
# Description: CD1c+ Dendritic Cells (DC) isolated from human normal PBMCs were thawed using media (IMDM (Gibco) supplemented with glutamine, HEPES, 5% human serum (Sigma), and 1×Pen-Strep). DC cells were resuspended in media supplemented with IL-4 (Peprotech, 80 ng/mL) and GM-CSF (Gibco, 80 ng/mL), plated in 6 well microplates, and rested overnight at 37° C. (5% CO2). The following day, DC cells were counted and plated in a 96 well round bottom microplate at a concentration of 30,000 viable cells per well. Ad5 vectors (Vector Biolabs) were dilute in media to an MOI (Multiplicity Of Infection) of 5000 based on Plaque Forming Units. Ad5 vectors for the CEF pool and a “null” were used as controls. DCs were transduced with Ad5 vectors overnight at 37° C. (5% CO2). The following day, the Ad5 vectors were washed off the plate by three sequential centrifugation/aspiration steps using sterile Phosphate Buffered Saline. After the final wash, transduced DCs were resuspended in 100 μL media. Autologous CD3+ Pan-T cells isolated from human normal PBMCs were thawed using media. Pan-T cells were added to the irradiated DCs at 300,000 viable cells per well (100 μL/well). Human IL-15 (Peprotech) was added to all wells at final concentration of 10 ng/mL.
# Plates were incubated at 37° C. (5% CO2) for a total of 12 days. Media was refreshed every 2-3 days with IL-15 (10 ng/mL final concentration) and IL-2 (R&D systems, 10 IU/mL final concentration). On day 11 lyophilized peptides (15-mer overlapping peptides) were solubilized in 100% DMSO and pooled by neoantigen to between 5 mg/mL and 20 mg/mL. Neoantigen peptides pools were added to cells for a final concentration of 2.5 μg/mL to 10 μg/mL. CEF Peptide Pool “Plus” (Cellular Technologies, Ltd.) was utilized as a positive control and DMSO at the same final concentration as the experimental peptides was utilized as a negative control. Protein Inhibitor Cocktail (eBioscience) was added to every well and plate was incubated overnight at 37° C. (5% CO2).
# On day 12, cells were stained for intracellular flow cytometry analysis. The cells were washed with PBS and stained with Live/Dead Fixable Aqua Dead Cell stain (Thermo-Fisher). Following the live/dead stain, cells were blocked using Biotin-Free Fc Receptor Blocker (Accurate Chemical & Scientific Corp). Extracellular cellular flow panel ([…] per well in 50 μL) consisted of CD3 PerCP-Cy5.5 (Biolegend), CD4 BV421 (Biolegend), and CD8 APC-Cy7 (Biolegend). After extracellular staining, cells were fixed using Foxp3/fTranscription Factor Staining Buffer Set (eBioscience) and stained for intracellular proteins (1:50 dilution) using TNFα FITC (R&D Systems) and IFNγ BV785 (Biolegend). Cells were washed and resuspended in stain buffer and analyzed using a BD Celesta flow cytometer.
# Flow cytometry cell staining analysis was completed using FlowJo v10. Cells were gated on live, singlet, CD3+ cells. The CD8+ and CD4+ T cells were analyzed for TNFα/IFNγ expression and the frequency of double positive TNFα/IFNγ CD8+ and the frequency of double positive TNFα/IFNγ CD4+ T cells were recorded. Responses were assessed to be positive when the frequency of double positive TNFα/IFNγ CD8+ or TNFα/IFNγ CD4+ T cells due to stimulation with an experimental peptide pool was increased greater than or equal to 3-fold over the DMSO only negative control for that donor and at least 0.01%.
# For three of the neoantigens, an Ad5 vector was designed to transduce normal Dendritic cells with the neoantigens. This assay assessed the ability of the endogenously expressed and presented neoantigens to activate autologous T cells following overlapping 15-mer peptide pools restimulation using the endogenous autologous normal donor restimulation assay described in Example 1 utilizing TNFα and IFNγ production by CD8^+ and CD4^+ T cells as a readout. […] Sixteen donors were used to assess endogenous immunogenicity.
# [3] = highest frequency across normal donors
sequence,measurement,setting,value
"WKFEMSYTVGGPPPHVHARPRHWKTDR (listed as Homo sapiens) [AS18, NWD1 alternative splicing]",Maximum Fold Change Over Background CD4+ cells,"[1]; TNFα+IFNγ+ CD4+ T cells, highest fold change over negative control across normal donors",7.51
same,Maximum Fold Change Over Background CD8+ cells,"[1]; TNFα+IFNγ+ CD8+ T cells, highest fold change over negative control across normal donors",9.17
same,Maximum Frequency of TNFα/IFNγ Double Positive CD4+ T cells,[1]; [3],0.053
same,Maximum Frequency of TNFα/IFNγ Double Positive CD8+ T cells,[1]; [3],0.110
same,Maximum Fold Change Over Background CD4+ cells,[2],1.90
same,Maximum Fold Change Over Background CD8+ cells,[2],4.09
same,Maximum Frequency of TNFα/IFNγ Double Positive CD4+ T cells,[2],0.046
same,Maximum Frequency of TNFα/IFNγ Double Positive CD8+ T cells,[2],0.36

# From patent US12295997B2, “Prostate neoantigens and their uses” (Janssen Biotech, Inc., priority 2020, dated 2025)
